Measurements reported in ChEMBL document CHEMBL6083263, “The Discovery of MORF-627, a Highly Selective Conformationally-Biased Zwitterionic Integrin αvβ6 Inhibitor for Fibrosis” (J Med Chem, 2024).

Legend:
[1] = target: Integrin alpha-V/beta-1 (Homo sapiens, UniProt P05556+P06756); experiment: Displacement of fluorescein labeled ACRGDGWC from human Integrin alphaVbeta1 preincubated for 15 mins followed by fluorescein labeled ACRGDGWC addition and measured after 1 hr by fluorescence polarization assay; format: protein-complex assay
[2] = target: Integrin alpha-V/beta-8 (Homo sapiens, UniProt P06756+P26012); experiment: Displacement of fluorescein labeled GRGDLGRL from human Integrin alphaVbeta8 preincubated for 15 mins followed by fluorescein labeled GRGDLGRL addition and measured after 1 hr by fluorescence polarization assay; format: protein-complex assay
[3] = Octanol/water partition coefficient, logD of the compound; format: physicochemical
[4] = target: T1, Integrin alpha-V/beta-6 (Homo sapiens, UniProt P06756+P18564); experiment: Displacement of fluorescein labeled GRGDLGRL from human Integrin alphaVbeta6 preincubated for 15 mins followed by fluorescein labeled GRGDLGRL addition and measured after 1 hr by fluorescence polarization assay; format: protein-complex assay
[5] = species: Homo sapiens; experiment: Selectivity ratio of IC50 for displacement of fluorescein labeled ACRGDGWC from human Integrin alphaVbeta1 to IC50 for displacement of fluorescein labeled GRGDLGRL from human Integrin alphaVbeta6
[6] = target: T1, Integrin alpha-V/beta-6; experiment: Binding affinity to human Integrin alphaVbeta6 overexpressed in HEK293 cells incubated for 15 mins in presence of human serum by flow cytometry assay; format: cell-based
[7] = Volume of distribution at steady state in Sprague-Dawley rat at 1 mg/kg, iv measured upto 24 hrs by LC/MS-MS analysis; format: ADME, organism-based; conditions: in vivo, read-out: Vdss
[8] = Clearance in Sprague-Dawley rat at 1 mg/kg, iv measured upto 24 hrs by LC/MS-MS analysis; format: ADME, organism-based; conditions: in vivo
[9] = Half-life in Sprague-Dawley rat at 1 mg/kg, iv measured upto 24 hrs by LC/MS-MS analysis; format: ADME, organism-based; conditions: in vivo
[10] = Oral bioavailability in Sprague-Dawley rat at 10 mg/kg measured upto 24 hrs by LC/MS-MS analysis; format: ADME, organism-based; conditions: in vivo
[11] = species: Homo sapiens; experiment: Selectivity ratio of IC50 for displacement of fluorescein labeled GRGDLGRL from human Integrin alphaVbeta8 to IC50 for displacement of fluorescein labeled GRGDLGRL from human Integrin alphaVbeta6

Sequence of Integrin alpha-V/beta-1 (P05556 21-798 limits assumed): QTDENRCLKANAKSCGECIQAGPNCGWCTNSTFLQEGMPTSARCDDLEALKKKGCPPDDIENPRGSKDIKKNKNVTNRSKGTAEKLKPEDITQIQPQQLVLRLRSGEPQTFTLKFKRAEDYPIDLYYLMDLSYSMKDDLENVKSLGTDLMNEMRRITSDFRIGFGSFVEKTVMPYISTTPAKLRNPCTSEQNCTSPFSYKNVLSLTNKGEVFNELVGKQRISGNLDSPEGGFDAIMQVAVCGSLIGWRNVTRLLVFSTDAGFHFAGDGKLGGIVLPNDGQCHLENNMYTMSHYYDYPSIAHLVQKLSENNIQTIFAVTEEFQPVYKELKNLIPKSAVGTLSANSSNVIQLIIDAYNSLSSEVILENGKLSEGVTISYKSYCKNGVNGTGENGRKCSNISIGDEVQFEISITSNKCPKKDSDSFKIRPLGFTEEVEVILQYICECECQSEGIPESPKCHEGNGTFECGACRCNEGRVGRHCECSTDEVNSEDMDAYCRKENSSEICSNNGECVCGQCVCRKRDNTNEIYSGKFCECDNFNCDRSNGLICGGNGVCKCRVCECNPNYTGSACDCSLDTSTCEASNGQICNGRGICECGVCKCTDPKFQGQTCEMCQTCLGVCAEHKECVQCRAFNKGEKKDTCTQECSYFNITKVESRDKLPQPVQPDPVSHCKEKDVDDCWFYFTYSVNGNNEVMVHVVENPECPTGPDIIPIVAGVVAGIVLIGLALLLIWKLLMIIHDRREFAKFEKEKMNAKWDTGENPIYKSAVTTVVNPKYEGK
Sequence of Integrin alpha-V/beta-1 (P06756 31-889 limits assumed): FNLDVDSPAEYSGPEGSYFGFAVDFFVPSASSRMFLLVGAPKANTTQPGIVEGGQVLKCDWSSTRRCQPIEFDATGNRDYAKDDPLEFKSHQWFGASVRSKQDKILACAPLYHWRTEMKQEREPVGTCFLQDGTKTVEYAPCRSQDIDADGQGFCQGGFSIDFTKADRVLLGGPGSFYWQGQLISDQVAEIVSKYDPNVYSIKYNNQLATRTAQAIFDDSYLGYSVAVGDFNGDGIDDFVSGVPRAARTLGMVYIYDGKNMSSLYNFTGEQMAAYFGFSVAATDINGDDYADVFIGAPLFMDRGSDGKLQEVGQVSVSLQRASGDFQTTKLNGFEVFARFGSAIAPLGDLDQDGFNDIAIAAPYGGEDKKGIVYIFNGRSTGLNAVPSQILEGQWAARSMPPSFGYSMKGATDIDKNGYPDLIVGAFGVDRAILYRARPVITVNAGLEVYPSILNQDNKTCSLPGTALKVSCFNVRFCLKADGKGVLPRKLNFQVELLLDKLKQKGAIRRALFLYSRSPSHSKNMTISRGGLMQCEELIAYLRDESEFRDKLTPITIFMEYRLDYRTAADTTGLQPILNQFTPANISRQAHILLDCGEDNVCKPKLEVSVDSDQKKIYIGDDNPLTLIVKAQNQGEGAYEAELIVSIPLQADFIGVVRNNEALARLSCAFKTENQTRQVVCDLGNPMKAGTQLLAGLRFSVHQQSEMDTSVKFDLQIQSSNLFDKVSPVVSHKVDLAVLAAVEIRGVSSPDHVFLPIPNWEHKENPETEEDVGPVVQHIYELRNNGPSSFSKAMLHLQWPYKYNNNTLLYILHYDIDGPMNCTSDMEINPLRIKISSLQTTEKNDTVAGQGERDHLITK
Sequence of Integrin alpha-V/beta-1 (P06756 891-1048 limits assumed): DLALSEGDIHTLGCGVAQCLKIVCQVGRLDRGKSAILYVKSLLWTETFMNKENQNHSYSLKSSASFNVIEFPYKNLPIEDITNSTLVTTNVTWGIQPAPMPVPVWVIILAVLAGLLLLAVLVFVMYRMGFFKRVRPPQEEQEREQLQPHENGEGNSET
T1 sequence (P06756 31-889 limits assumed): as the sequence (P06756 31-889 limits assumed) above
T1 sequence (P06756 891-1048 limits assumed): as the sequence (P06756 891-1048 limits assumed) above
T1 sequence (P18564 22-788 limits assumed): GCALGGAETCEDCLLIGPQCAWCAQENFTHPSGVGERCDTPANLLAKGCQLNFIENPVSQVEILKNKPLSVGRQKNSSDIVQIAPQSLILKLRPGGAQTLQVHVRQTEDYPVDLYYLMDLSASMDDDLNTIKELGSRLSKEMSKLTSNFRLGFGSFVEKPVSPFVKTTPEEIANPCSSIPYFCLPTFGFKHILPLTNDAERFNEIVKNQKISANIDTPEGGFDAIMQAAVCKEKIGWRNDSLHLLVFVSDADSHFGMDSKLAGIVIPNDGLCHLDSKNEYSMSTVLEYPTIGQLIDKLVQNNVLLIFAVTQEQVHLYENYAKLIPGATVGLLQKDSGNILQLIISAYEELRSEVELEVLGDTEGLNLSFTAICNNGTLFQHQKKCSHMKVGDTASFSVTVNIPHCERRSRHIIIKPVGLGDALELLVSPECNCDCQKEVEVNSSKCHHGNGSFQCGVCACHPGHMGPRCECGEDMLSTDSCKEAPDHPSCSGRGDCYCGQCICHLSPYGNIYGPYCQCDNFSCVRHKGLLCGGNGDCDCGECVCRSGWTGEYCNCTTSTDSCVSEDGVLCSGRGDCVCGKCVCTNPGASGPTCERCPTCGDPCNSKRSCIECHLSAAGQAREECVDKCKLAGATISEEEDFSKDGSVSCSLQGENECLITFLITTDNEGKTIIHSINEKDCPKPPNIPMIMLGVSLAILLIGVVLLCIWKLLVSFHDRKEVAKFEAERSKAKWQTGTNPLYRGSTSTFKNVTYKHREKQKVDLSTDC
Sequence of Integrin alpha-V/beta-8 (P06756 31-889 limits assumed): as the sequence (P06756 31-889 limits assumed) above
Sequence of Integrin alpha-V/beta-8 (P06756 891-1048 limits assumed): as the sequence (P06756 891-1048 limits assumed) above
Sequence of Integrin alpha-V/beta-8 (P26012 43-769 limits assumed): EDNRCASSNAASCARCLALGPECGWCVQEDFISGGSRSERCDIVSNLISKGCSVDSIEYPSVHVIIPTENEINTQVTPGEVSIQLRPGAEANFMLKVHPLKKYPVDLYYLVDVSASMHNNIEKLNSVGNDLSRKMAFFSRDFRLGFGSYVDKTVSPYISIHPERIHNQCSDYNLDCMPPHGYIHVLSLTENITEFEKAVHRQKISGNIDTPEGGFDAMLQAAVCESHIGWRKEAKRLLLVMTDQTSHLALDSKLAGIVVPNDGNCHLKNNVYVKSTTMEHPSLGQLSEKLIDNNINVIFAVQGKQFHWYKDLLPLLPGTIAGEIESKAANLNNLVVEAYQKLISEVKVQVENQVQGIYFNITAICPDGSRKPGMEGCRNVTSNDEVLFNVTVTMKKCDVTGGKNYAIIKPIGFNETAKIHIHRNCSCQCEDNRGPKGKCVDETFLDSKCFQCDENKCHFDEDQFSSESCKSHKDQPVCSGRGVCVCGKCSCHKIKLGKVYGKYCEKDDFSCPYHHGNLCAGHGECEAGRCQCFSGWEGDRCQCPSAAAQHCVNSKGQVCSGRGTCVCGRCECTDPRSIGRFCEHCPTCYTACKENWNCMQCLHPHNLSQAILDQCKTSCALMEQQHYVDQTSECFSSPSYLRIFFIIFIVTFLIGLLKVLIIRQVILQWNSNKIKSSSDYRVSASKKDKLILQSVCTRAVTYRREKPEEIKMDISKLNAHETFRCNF

SMILES | IC50 [1] [nM] | IC50 [2] [nM] | logD [3] | IC50 [4] [nM] | Ratio IC50 [5] | IC50 [6] [nM] | Vd [7] [L/kg] | clearance [8] [mL/min/kg] | half-life [9] [h] | bioavailability [10] [%] | Ratio IC50 [11]
O=C(O)[C@H](c1cc(F)ccc1C1CC1)N1CC[C@@H](OCCCCc2ccc3c(n2)NCCC3)C1 | 92 | 38 | 1.7 | 4 |  |  |  |  |  |  | 
O=C(O)[C@H](c1ccccc1C1CC1)N1CC[C@@H](n2cc(CCc3ccc4c(n3)NCCC4)cn2)C1 | 56 | 100 | 1.6 | 33 |  |  |  |  |  |  | 
O=C(O)[C@H](c1ccccc1C1CC1)N1CC[C@@H](OCCCc2ccc3c(n2)NCCC3)C1 | 250 | 140 | 1.2 | 8.6 |  |  |  |  |  |  | 
O=C(O)[C@H](c1ccccc1C1CC1)N1CC[C@@H](OCCCCCc2ccc3c(n2)NCCC3)C1 | 94 | 17 | 1.8 | 4.4 |  |  |  |  |  |  | 
O=C(O)[C@H](c1ccccc1)N1CC[C@@H](OCCCCc2ccc3c(n2)NCCC3)C1 | 3900 | 1100 | 0.7 | 80 |  |  |  |  |  |  | 
O=C(NCCCc1ccc2c(n1)NCCC2)[C@@H]1CCN([C@H](C(=O)O)c2ccccc2)C1 | 1900 | 78 | 0.4 | 37 | > 50 |  |  |  |  |  | 
O=C(O)[C@H](c1ccccc1C1CC1)N1C[C@@H](F)[C@@H](OCCCCc2ccc3c(n2)NCCC3)C1 | 130 | 140 | 1.4 | 8.5 |  |  |  |  |  |  | 
O=C(O)[C@H](c1cc(F)ccc1[C@H]1CCCCO1)N1CC[C@@H](OCCCCc2ccc3c(n2)NCCC3)C1 | 130 | 130 | 1.7 | 8 |  |  |  |  |  |  | 
CC1(C)CCO[C@H](c2ccccc2[C@@H](C(=O)O)N2CC[C@@H](OCCCCc3ccc4c(n3)NCCC4)C2)C1 | 570 | 410 | 2.3 | 1.6 |  | 213 |  |  |  |  | 
O=C(O)[C@H](c1ccc(C2CC2)cc1)N1CC[C@@H](OCCCCc2ccc3c(n2)NCCC3)C1 | 1600 | 300 | 1.7 | 12 |  |  |  |  |  |  | 
CC1(C)CC[C@@H](c2ccc(F)cc2[C@@H](C(=O)O)N2CC[C@@H](OCCCCc3ccc4c(n3)NCCC4)C2)OC1 | 690 | 140 | 2.6 | 0.5 |  | 41 | 2.4 | 30 | 1.2 | 25 | 
O=C(O)[C@H](c1cc(F)ccc1[C@@H]1CCCCO1)N1CC[C@@H](OCCCCc2ccc3c(n2)NCCC3)C1 | 87 | 74 |  | 1.6 | > 50 | 16 | 2.7 | 29 | 1.5 | 38 | > 50
CC1(C)CC[C@@H](c2ccccc2[C@@H](C(=O)O)N2CC[C@@H](OCCCCc3ccc4c(n3)NCCC4)C2)OC1 | 830 | 430 | 1.5 | 0.8 | 1100 | 35 | 2.6 | 50 | 1.2 |  | 560
CC1(C)CCCC(c2ccccc2[C@@H](C(=O)O)N2CC[C@@H](OCCCCc3ccc4c(n3)NCCC4)C2)O1 (some centres not stated) | 72 | 150 | 2.1 | 4.6 |  |  |  |  |  |  | 
O=C(O)[C@H](c1cc(F)ccc1[C@@H]1CCCO1)N1CC[C@@H](OCCCCc2ccc3c(n2)NCCC3)C1 | 92 | 134 | 1.5 | 1.9 | > 50 | 21 | 1.2 | 13 | 1.5 | 41 | > 50
O=C(O)[C@H](c1cc(F)ccc1[C@H]1CCCO1)N1CC[C@@H](OCCCCc2ccc3c(n2)NCCC3)C1 | 193 | 155 | 1.4 | 12 |  |  |  |  |  |  | 
O=C(O)[C@H](c1cc(F)ccc1[C@H]1CCOC1)N1CC[C@@H](OCCCCc2ccc3c(n2)NCCC3)C1 | 110 | 190 | 1.1 | 2.8 |  | 90 |  |  |  |  | 
O=C(NCCCc1ccc2c(n1)NCCC2)[C@@H]1CCN([C@@H](C(=O)O)c2ccccc2)C1 | 9500 | 130 |  | 93 |  |  |  |  |  |  | 
O=C(NCCCc1ccc2c(n1)NCCC2)C1CCN([C@@H](C(=O)O)c2ccccc2)CC1 | 30000 |  |  | 16000 |  |  |  |  |  |  | 
O=C(O)CN1CC[C@H](C(=O)NCCCc2ccc3c(n2)NCCC3)C1 | 1600 |  |  | 4300 |  |  |  |  |  |  | 
O=C(O)CN1CCC(C(=O)NCCCc2ccc3c(n2)NCCC3)CC1 | 650 | 370 | -0.5 | 1500 |  |  |  |  |  |  | 
O=C(O)[C@H](c1ccccc1C1CC1)N1CC[C@@H](OCCCCc2ccc3c(n2)NCCC3)C1 | 96 | 55 | 1.4 | 4.6 |  |  |  |  |  |  | 
O=C(O)CN1CC[C@@H](C(=O)NCCCc2ccc3c(n2)NCCC3)C1 | 4000 |  | -0.6 | 790 |  |  |  |  |  |  | 
O=C(O)[C@H](c1cc(F)ccc1C1CCOCC1)N1CC[C@@H](OCCCCc2ccc3c(n2)NCCC3)C1 | 120 | 100 | 1.3 | 7.8 |  | 128 |  |  |  |  | 
O=C(NCCCc1ccc2c(n1)NCCC2)C1CCN([C@H](C(=O)O)c2ccccc2)CC1 | 14000 |  | 0.2 | 4100 |  |  |  |  |  |  | 
O=C(O)[C@H](c1ccccc1C1CCCOC1)N1CC[C@@H](OCCCCc2ccc3c(n2)NCCC3)C1 (some centres not stated) | 300 | 180 | 1.2 | 25 |  |  |  |  |  |  | 
O=C(O)[C@H](c1cccc(C2CC2)c1)N1CC[C@@H](OCCCCc2ccc3c(n2)NCCC3)C1 | 1100 | 180 | 1.7 | 13 |  |  |  |  |  |  | 
O=C(O)[C@H](c1ccccc1C1CC1)N1CC[C@@H](Oc2ccc(Cc3ccc4c(n3)NCCC4)cc2)C1 | 27 | 7.7 | 2.4 | 0.7 |  |  |  |  |  |  | 
O=C(O)[C@H](c1cc(F)ccc1[C@@H]1CCOC1)N1CC[C@@H](OCCCCc2ccc3c(n2)NCCC3)C1 | 170 | 83 | 1 | 4.1 |  |  |  |  |  |  | 
